Measurements published in ChEMBL document CHEMBL4308884, “Development and characterization of a CNS-penetrant benzhydryl hydroxamic acid class IIa histone deacetylase inhibitor” (Bioorg Med Chem Lett, 2019).
In brackets after ≈: the same amount, converted by molar mass.

How the values were obtained:
[1] = Kinetic aqueous solubility of the compound; format: physicochemical; conditions: buffer; read-out: Kinetic_solubility
[2] = Apparent passive permeability in MDCK cells at 10 uM after 1 hr by LC-MS/MS analysis; format: ADME, cell-based, Canis lupus familiaris; conditions: dog; for Papp: mdck, 1 h, 10 µM

solubility kinetic [1] [µM]	Papp at 1 h, 10 µM ([2]; MDCK) [×10⁻⁶ cm/s]	SMILES	Papp [2]
141 (≈ 55.2 µg/mL)		O=C(NO)C(c1ccc(-c2nccc(C(F)(F)F)n2)cc1)c1ccccc1F (stereo unspecified)	Nd(Toxic)
164 (≈ 53 µg/mL)	46.4	O=C(NO)C(c1ccc(-c2cnccn2)cc1)c1ccccc1F (stereo unspecified)	
52 (≈ 17.5 µg/mL)		Cc1cnc(-c2ccc(C(C(=O)NO)c3ccccc3F)cc2)nc1 (stereo unspecified)	Nd(Toxic)
